{"source": "paper PMC11642016", "about": "(International Journal of Molecular Sciences, 2024)", "key": {"Fadu cells": {"system": "Fadu cells", "assay": "CellTiter-Glo luminescent cell viability assay, Fadu"}, "PANC-1 and Fadu cells": {"system": "PANC-1 and Fadu cells", "assay": "CellTiter-Glo viability, statements covering both cancer cell lines", "assay_type": "cell-based, human", "conditions": "72 h dose–response"}, "[1]": {"assay": "CellTiter-Glo cell viability assay, HEK293T WT", "conditions": "human, HEK293T WT cells, HEK293T WT Cell viability (% of controll), 72 h, dose–response, individual replicates", "description": "(§1) Primary fibroblast cultures were prepared from human skin biopsies and maintained in DMEM supplemented with 10% FBS, 1% penicillin-streptomycin, and 1% MEM Non-Essential Amino Acids Solution (Thermo Fisher Scientific). […] All cell lines were cultured in a humidified atmosphere at 37 °C and 5% CO2, passaged twice a week, and the experiments were performed on cells between passage 5 and 15. The cell lines were routinely screened for the absence of mycoplasma infection (DAPI staining).\n(§2) The effects of the synthesized compounds on cell viability were measured using the CellTiter-Glo® luminescent cell viability assay (Promega, Madison, WI, USA), according to the manufacturer’s instructions. Briefly, cells were seeded onto a flat-bottomed, white 96-well plate (BRANDplates, cat. no.: 781965)), with the following densities: PANC-1: 750 cells/well, Fadu: 2000 cells/well, primary fibroblasts: 2000 cells/well, HEK293T WT: 1000 cells/well, HEK293T CLPP^−/−: 2500 cells/well. After seeding, cells were incubated for a further 48 h before treatment. Cells were treated with the compounds for 72 h. Three concentrations (25.0 µM; 8.3 µM; 2.8 µM) were applied during the initial cell viability screening, while for the determination of dose–response curves, 1.5-fold serially diluted compound concentrations were applied (range: 26 µM–0.7 µM). After treatment, the luminescence signal was recorded using a microplate reader (BioTek Synergy 2 Multi-Mode Reader, BioTek, Winooski, VT, USA).\n(§3) Data analysis was performed using GraphPad Prism 9.5.0 software (GraphPad Software, San Diego, CA, USA). […] The dose–response curves were generated by four-parameter nonlinear regression, and the IC50 values were determined as the means ± SEM of the best-fit values of 3 independent measurements. The R^2 values were consistently above 0.93, indicating a strong fit of the model to the experimental data (Supplementary S.89). […] Dunnett’s post hoc test was applied to adjust for multiple comparisons, minimizing the likelihood of false positive results. Assumptions for ANOVA, including normality (assessed via QQ plots) and homogeneity of variance (tested using the Brown–Forsythe test), were verified. The following significance levels were applied: * p < 0.05, ** p < 0.01, *** p < 0.001, **** p < 0.0001. […] The tumor selectivity of the compounds was quantitatively characterized by the selectivity index (SI). This parameter was calculated as the ratio of the average best-fit IC50 value for primary fibroblasts and the best-fit IC50 value for the corresponding tumor cells (PANC-1 or Fadu)."}, "HEK293T WT cells": {"system": "HEK293T WT cells", "assay": "CellTiter-Glo cell viability assay, HEK293T WT", "conditions": "for HEK293T WT Cell viability (% of controll): dose–response, individual replicates", "description": "as §1, §2, §3"}, "HEK293T CLPP^−/− cells": {"system": "HEK293T CLPP^−/− cells", "assay": "CellTiter-Glo cell viability assay, HEK293T CLPP−/− (ClpP dependence);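 on all read-outs here: CellTiter-Glo luminescent signal read on a microplate reader once HEK293T CLPP−/− cells had been exposed to compounds for 72 h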", "conditions": "72 h; for HEK293T CLPP-/- Cell viability (% of controll): individual replicates", "description": "as §1, §2, §3"}, "[2]": {"assay": "CellTiter-Glo cell viability assay, HEK293T CLPP−/− (ClpP dependence)", "conditions": "human, HEK293T CLPP−/− cells, HEK293T CLPP-/- Cell viability (% of controll), 72 h, dose–response, individual replicates", "description": "as §1, §2, §3"}}, "note": "Where “and” joins values, the source holds several entries; their conditions need not be identical. Equal entries are not always repeated. Where two headings read alike, the source gives them in different places.", "data": [{"smiles": "CNCC#Cc1cccc(CN2C(=O)C3=C(CCN(Cc4ccc(-n5cc(-c6ccccc6)nn5)cc4)C3)N3CCN=C23)c1", "note": "[38b]", "values": [{"measurement": "Fadu Cell viability (% of controll)", "setting": "Fadu cells; 26 μM, 72 h, dose–response, individual replicates", "result": "0 % of controll"}, {"measurement": "viability at 2.8 µM", "setting": "Fadu cells; Homo sapiens, FaDu, 72 h, read-out: Cell Viability (% of Control) 2.8 µM, Fadu, 2.8 µM, 72 h, second-set screening, mean ± SD, n = 2", "result": "91 ± 17", "unit": "%"}, {"measurement": "viability at 8.3 µM", "setting": "Fadu cells; Homo sapiens, FaDu, 72 h, read-out: Cell Viability (% of Control) 8.3 µM, Fadu, 8.3 µM, 72 h, second-set screening, mean ± SD, n = 2", "result": 0, "unit": "%"}, {"measurement": "viability at 25 µM", "setting": "Fadu cells; Homo sapiens, FaDu, 72 h, read-out: Cell Viability (% of Control) 25 µM, Fadu, 25 µM, 72 h, second-set screening, mean ± SD, n = 2", "result": 0, "unit": "%"}, {"measurement": "viability at 0.7 µM", "setting": "Fadu cells; Homo sapiens, FaDu, 72 h, read-out: Fadu Cell viability (% of controll), 0.7 μM, 72 h, dose–response, individual replicates", "result": 103, "unit": "%"}, {"measurement": "viability at 1 µM", "setting": "Fadu cells; Homo sapiens, FaDu, 72 h, read-out: Fadu Cell viability (% of controll), 1 μM, 72 h, dose–response, individual replicates", "result": 113, "unit": "%"}, {"measurement": "viability at 1.5 µM", "setting": "Fadu cells; Homo sapiens, FaDu, 72 h, read-out: Fadu Cell viability (% of controll), 1.5 μM, 72 h, dose–response, individual replicates", "result": 104, "unit": "%"}, {"measurement": "viability at 2.3 µM", "setting": "Fadu cells; Homo sapiens, FaDu, 72 h, read-out: Fadu Cell viability (% of controll), 2.3 μM, 72 h, dose–response, individual replicates", "result": 104, "unit": "%"}, {"measurement": "viability at 7.7 µM", "setting": "Fadu cells; Homo sapiens, FaDu, 72 h, read-out: Fadu Cell viability (% of controll), 7.7 μM, 72 h, dose–response, individual replicates", "result": 0, "unit": "%"}, {"measurement": "viability at 17.3 µM", "setting": "Fadu cells; Homo sapiens, FaDu, 72 h, read-out: Fadu Cell viability (% of controll), 17.3 μM, 72 h, dose–response, individual replicates", "result": 0, "unit": "%"}, {"measurement": "viability at 26 µM", "setting": "Fadu cells; Homo sapiens, FaDu, 72 h, read-out: Fadu Cell viability (% of controll), 26 μM, 72 h, dose–response, individual replicates", "result": 0, "unit": "%"}, {"measurement": "IC50", "setting": "Fadu cells; Homo sapiens, FaDu, 72 h, read-out: IC50 Value ± SEM Fadu, 72 h treatment, best-fit values, n = 3", "result": "3.3 ± 0.07", "unit": "µM"}, {"measurement": "Selectivity Index (SI) Fibroblast/Fadu", "setting": "Fadu cells; ratio of mean best-fit IC50 for primary fibroblasts and best-fit IC50 for Fadu", "result": 1.3}, {"measurement": "concentration range of almost complete eradication of PANC-1 and Fadu cells with little to no cytotoxic effect toward fibroblasts", "setting": "PANC-1 and Fadu cells", "result": "3000 to 4000", "unit": "nM"}, {"measurement": "viability at 72 h, 0.4 µM", "setting": "[1]; 0.4 μM", "result": 121, "unit": "%"}, {"measurement": "viability at 72 h, 0.6 µM", "setting": "[1]; 0.6 μM", "result": 107, "unit": "%"}, {"measurement": "viability at 72 h, 1 µM", "setting": "[1]; 1.0 μM", "result": 109, "unit": "%"}, {"measurement": "viability at 72 h, 1.6 µM", "setting": "[1]; 1.6 μM", "result": 64, "unit": "%"}, {"measurement": "viability at 72 h, 4 µM", "setting": "[1]; 4.0 μM", "result": 0, "unit": "%"}, {"measurement": "viability at 72 h, 6.4 µM", "setting": "[1]; 6.4 μM", "result": 0, "unit": "%"}, {"measurement": "viability at 72 h, 16.25 µM", "setting": "[1]; 16.25 μM", "result": 0, "unit": "%"}, {"measurement": "viability at 72 h, 26 µM", "setting": "[1]; 26 μM", "result": 0, "unit": "%"}, {"measurement": "HEK293T WT Cell viability (% of controll)", "setting": "HEK293T WT cells; 0.4 μM, 72 h", "result": "116 % of controll and 117 % of controll and 121 % of controll"}, {"measurement": "HEK293T WT Cell viability (% of controll)", "setting": "HEK293T WT cells; 0.6 μM, 72 h", "result": "110 % of controll and 120 % of controll and 116 % of controll"}, {"measurement": "HEK293T WT Cell viability (% of controll)", "setting": "HEK293T WT cells; 1.0 μM, 72 h", "result": "110 % of controll and 102 % of controll"}, {"measurement": "HEK293T WT Cell viability (% of controll)", "setting": "HEK293T WT cells; 1.6 μM, 72 h", "result": "66 % of controll and 67 % of controll and 83 % of controll"}, {"measurement": "HEK293T WT Cell viability (% of controll)", "setting": "HEK293T WT cells; 2.5 μM, 72 h", "result": "6 % of controll and 15 % of controll and 12 % of controll (2×)"}, {"measurement": "HEK293T WT Cell viability (% of controll)", "setting": "HEK293T WT cells; 4.0 μM, 72 h", "result": "0 % of controll"}, {"measurement": "HEK293T WT Cell viability (% of controll)", "setting": "HEK293T WT cells; 6.4 μM, 72 h", "result": "0 % of controll"}, {"measurement": "HEK293T WT Cell viability (% of controll)", "setting": "HEK293T WT cells; 16.25 μM, 72 h", "result": "0 % of controll"}, {"measurement": "HEK293T WT Cell viability (% of controll)", "setting": "HEK293T WT cells; 26 μM, 72 h", "result": "0 % of controll"}, {"measurement": "IC50", "setting": "HEK293T WT cells; Homo sapiens, HEK-293T, 72 h, read-out: IC50 (µM) HEK293T WT, 72 h treatment, ± SEM, best-fit values, n = 4", "result": "1.7 ± 0.02", "unit": "µM"}, {"measurement": "IC50", "setting": "HEK293T WT cells; Homo sapiens, HEK-293T, read-out: HEK293T WT IC50 values, Mean, mean of independently fitted replicate IC50 values (Supplement S.6)", "result": 1.67, "unit": "µM"}, {"measurement": "IC50", "setting": "HEK293T WT cells; Homo sapiens, HEK-293T, read-out: HEK293T WT IC50 values, individual replicates n1-n4, IC50 independently determined for each replicate measurement (Supplement S.6)", "result": 1.61, "unit": "µM"}, {"measurement": "IC50", "setting": "HEK293T WT cells; read-out: HEK293T WT IC50 values, individual replicates n1-n4, IC50 independently determined for each replicate measurement (Supplement S.6)", "result": "1.66 µM and 1.63 µM and 1.79 µM"}, {"measurement": "HEK293T CLPP-/- Cell viability (% of controll)", "setting": "HEK293T CLPP^−/− cells; 0.4 μM, dose–response, listed as CZT457, 0.4 µM", "result": "116 % of controll and 114 % of controll and 119 % of controll"}, {"measurement": "HEK293T CLPP-/- Cell viability (% of controll)", "setting": "HEK293T CLPP^−/− cells; 0.6 μM, dose–response, listed as CZT457, 0.6 µM", "result": "112 % of controll (2×) and 110 % of controll"}, {"measurement": "HEK293T CLPP-/- Cell viability (% of controll)", "setting": "HEK293T CLPP^−/− cells; 1.0 μM, dose–response, listed as CZT457, 1 µM", "result": "112 % of controll and 111 % of controll and 115 % of controll"}, {"measurement": "HEK293T CLPP-/- Cell viability (% of controll)", "setting": "HEK293T CLPP^−/− cells; 1.6 μM, dose–response, listed as CZT457, 1.6 µM", "result": "107 % of controll and 101 % of controll and 103 % of controll"}, {"measurement": "HEK293T CLPP-/- Cell viability (% of controll)", "setting": "HEK293T CLPP^−/− cells; 2.5 μM, dose–response, listed as CZT457, 2.5 µM", "result": "25 % of controll and 33 % of controll and 32 % of controll and 13 % of controll"}, {"measurement": "HEK293T CLPP-/- Cell viability (% of controll)", "setting": "HEK293T CLPP^−/− cells; 4.0 μM, dose–response, listed as CZT457, 4 µM", "result": "1 % of controll and 0 % of controll"}, {"measurement": "HEK293T CLPP-/- Cell viability (% of controll)", "setting": "HEK293T CLPP^−/− cells; 6.4 μM, dose–response", "result": "0 % of controll"}, {"measurement": "HEK293T CLPP-/- Cell viability (% of controll)", "setting": "HEK293T CLPP^−/− cells; 16.25 μM, dose–response", "result": "0 % of controll"}, {"measurement": "HEK293T CLPP-/- Cell viability (% of controll)", "setting": "HEK293T CLPP^−/− cells; 26 μM, dose–response", "result": "0 % of controll"}, {"measurement": "IC50", "setting": "HEK293T CLPP^−/− cells; Homo sapiens, HEK-293T, read-out: IC50 (µM) HEK293T CLPP^−/−", "result": "2.1 ± 0.03", "unit": "µM"}, {"measurement": "effect on the viability of HEK293T CLPP^−/− cells", "setting": "HEK293T CLPP^−/− cells; dose–response, compared with HEK293T WT", "result": "maintained"}, {"measurement": "viability at 72 h, 0.4 µM", "setting": "[2]; 0.4 μM", "result": 113, "unit": "%"}, {"measurement": "viability at 72 h, 0.6 µM", "setting": "[2]; 0.6 μM", "result": 117, "unit": "%"}, {"measurement": "viability at 72 h, 1 µM", "setting": "[2]; 1.0 μM", "result": 118, "unit": "%"}, {"measurement": "viability at 72 h, 1.6 µM", "setting": "[2]; 1.6 μM", "result": 100, "unit": "%"}, {"measurement": "viability at 72 h, 6.4 µM", "setting": "[2]; 6.4 μM", "result": 0, "unit": "%"}, {"measurement": "viability at 72 h, 16.25 µM", "setting": "[2]; 16.25 μM", "result": 0, "unit": "%"}, {"measurement": "viability at 72 h, 26 µM", "setting": "[2]; 26 μM", "result": 0, "unit": "%"}]}]}
